In test [1] the test system is HL60 human leukemia cell line. The test can be described thus: HL60 cell growth inhibition (trypan blue, 48 h). It is filed as cell-based. The note with it: Homo sapiens, HL-60, 48 h, HL60, 48 hours; read-out: ID50 (the source's name). The protocol:
A number of the compounds disclosed herein have been tested against the HL60 human leukemia cell line to assess their cytotoxic potential. These analogs were investigated in parallel with ET-18-OMe which was used as the reference compound. The methodologies used in this investigation were the same as described in A. Noseda, M. Berens, C. Piantadosi, and E. J. Modest, Lipids 22, 878-883, 1987. In brief, HL60 cells at a concentration of […] were incubated in wells with one milliliter medium with the experimental drug in parallel with the same concentration of cells with ET-18-OMe (standard) or EtOH (control). After 48 hours of incubation the cells were counted using the trypan blue dye exclusion technique to determine the effect of the drug on cell growth. The experimental drug and ET-18-OMe were tested at the same concentrations, e.g., 10, 5, 2.5 and 1.25 μM.

The subject of the next test is Protein Kinase C. Put plainly: Protein Kinase C activity (32P incorporation into histone). It counts as biochemical, human (HL-60 cells). The protocol:
PKC was prepared and assayed as described previously. See Daniel, L. W. et al., Biochem. Biophys. Res. Comm. 151, 291 (1988). In brief, HL-60 cells were grown in 75 milliliter flasks, harvested and washed with ice-cold normal saline. After centrifugation (600×g, 5 minutes, 4° Centigrade), the cell pellet was resuspended (20 mM Tris-HCl, pH 7.5, 2 mM EDTA, 10 mM EGTA, 50 mM 2-mercaptoethanol, 2 mM phenylmethylsulfonyl fluoride) and sonicated for 20 s with a stepped microprobe sonciator. Unbroken cells were removed by centrifugation as above and the supernatant centrifuged (65,000×g, 90 minutes, 4° Centigrade). The supernatant from this step (cytosol) was then fractionated on a 1×8 cm DEAE-Sephacel column after addition to sucrose to a final concentration of 10%. After equilibrating the column (20 mM Tris, pH 7.5, 0.2 mM EDTA, 0.2 mM EGTA, 50 mM 2-mercaptoethanol, 10% sucrose), the sample was loaded and unbound material was washed through with 40 milliliters of the equilibrating buffer. The PKC was eluted by a gradient from 0-0.5M NaCl in the buffer described above. Fractions of 1 milliliter were collected at 25 milliliters per hour and 0.05 milliliter aliquots assayed for PKC activity as described below. The fractions with the highest activity were pooled and used in further experiments.
The assays were done at pH 7.5 in a total volume of 0.25 milliliter and all tubes contained 25 mM Tris, 10 mM MgCl2, 40 μg per milliliter histone, 10 μM ATP (including 1 μCi of [gamma-^32 P]-ATP), 0.1 mM CaCl2, 20 μg per milliliter phosphatidylserine, 0.05 milliliter of the PKC preparation and 2.5 μM of oleoylacetylglycerol (OAG). Enzymatic activity was determined as the incorporation of ^32 P from [gamma-^32 P]-ATP) into histone in the presence of Ca^2+, phosphatidylserine, and OAG. Reactions were initiated by the addition of the enzyme preparation and halted after 20 minutes at 30° Centigrade by the addition of 0.05 milliliters of bovine serum albumin (10 milligrams per milliliter) and 1 milliliter 25% ice-cold trichloroacetic acid. The tubes were kept on ice and then filtered in a millipore vacuum box using Millipore® HA filters and washed with 25% trichloroacetic acid. The radioactivity bound to the filters was determined by scintillation spectrometry in 5 milliliters Budget Solve®. […] The analog to be tested was dissolved in ethanol, and added directly into the reaction mixture before the addition of PKC. As a control, 0.1% ethanol was included in the samples with the enzyme but with no inhibitor.

The subject of a further test is KB cells. The test can be described thus: Cytostatic activity on KB cells. As to conditions: Homo sapiens, read-out: IC50 KB. It counts as cell-based. Here is the method: (§1) All cells were grown in Eagle's minimum essential medium supplemented with 10% fetal bovine serum with the exception of HL-60 and K562-4 cells which were grown in RPMI 1640 medium supplemented with 10% fetal bovine serum. The KB and MH1 C1 cells, from a human nasopharyngeal carcinoma and rat hepatoma, respectively, were from American Type Culture Collection. The ChaGo cells, a human lung carcinoma, was generously provided by Dr. A. H. Tashjian. The human promyeloblastic leukemia cells, K562-4 were kindly supplied by Dr. Bismarck Lozzio. HL-60 cells, a human promyelocytic leukemia, and P388 cells, a mouse leukemia, were obtained from Dr. Y.-C. Cheng. The 77 cells were put into culture by us by excising the 7777, Morris hepatoma from a rat graciously supplied by the late Dr. H. P. Morris.
(§2) Cells were transferred or removed from monolayers for counting after a one or two minute incubation with 0.02% sodium ethylenediamine tetraacetate in phosphate-buffered saline to dislodge the cells. Flasks were seeded at a density of 1×10^3 cells per cm^2 or 2×10^4 per milliliter for suspension cultures. The HL-60 and K562-4 suspension cultures were used about 24 hours after seeding. The compounds to be tested were diluted to various concentrations and added to the monolayer cultures. All of the test compounds were dissolved in 10% dimethyl sulfoxide (DMSO) at concentrations that would give a final DMSO concentration of 0.1%. Control flasks contained 0.1% DMSO. Control cell replication was followed until approximately three doublings had occurred, and then all of the treated cells were counted.
(§3) The KB cells represented cells with low alkyl cleavage activity (less than the detectable level of 0.1-0.2 units per milligram protein by our assay procedure) and the 77 cells represented cells similar to normal cells with relatively high alkyl cleavage activity (1.6 units per milligram of protein). Our value for the cleavage activity of cultured 77 cells agrees well with the value of 1.4 units per milligram of protein reported by Soodsma et al, Cancer Res. 30, 309 (1970), for freshly excised 7777 Morris hepatoma tissue. In further confirmation of our assay procedure, we obtained a value of 12.6±4.1 units per milligram of protein in excised rat liver compared to 7.3 units per milligram of protein in rat liver measured by Soodsma et al.

Another test has as its system 77 cells. The test can be described thus: Cytostatic activity on 77 cells. The note with it: for IC50: 77 cells, after controls doubled three times; for 77/KB: ratio of IC50 values ± standard error of the quotient. It is filed as cell-based, rat. The protocol: as §1, §2, §3
Where [2] appears, read: KB cells, after controls doubled three times.

Consider 19 molecules from patent US5614548A, “Quaternary amine containing ether or ester lipid derivatives and therapeutic compositions” (priority 1994, dated 1997).

Structures are written as SMILES. Read-outs that look alike come from different tables or passages of the source.

In the case of `CCCCCCCCCCCCCCCCOCCC[N+](C)(C)C` [KLM 69, 3-hexadecyloxy-N,N,N-trimethyl-1-propyl ammonium bromide], the IC50 in test [1] stood at 1600 nM.

For the molecule `CCCCCCCCCCCCCCCCOCC(C[N+](C)(C)CCO)OC` (stereo not shown) [H], the “Percent Protein Kinase C Activity Retained” value with Protein Kinase C (1.25 μM) was found to be 107%; with Protein Kinase C (2.5 μM), 95%; in the test on Protein Kinase C (5.0 μM), 87%; in the test with Protein Kinase C (10.0 μM), 64%; with Protein Kinase C (20.0 μM) it was 42%; with Protein Kinase C (40.0 μM) it was 29%.

On to `CCCCCCCCCCCCCCCCCC1OCC(C[N+](C)(C)CCCO)O1` (stereo not shown) [G], for which the “Percent Protein Kinase C Activity Retained” value in the test on Protein Kinase C (1.25 μM) is given as 44%; with Protein Kinase C (2.5 μM), 43%; with Protein Kinase C (5.0 μM), 26%; in the test on Protein Kinase C (10.0 μM) it was 12%; with Protein Kinase C (20.0 μM), 9%; with Protein Kinase C (40.0 μM), 9%.

With `CCCCCCCCCCCCCCCCCC1OCC(C[N+](C)(C)CCCO)O1` (racemic) [CJM 60, (±)-N-(2-heptadecyl-1,3-dioxolan-4-yl)methyl-N,N-dimethyl-gamma-hydroxypropyl ammonium bromide], the IC50 in test [1] stood at 6500 nM.

`C[N+](C)(CCO)CCOc1ccccc1` [IX, 2-Phenoxy-N,N-dimethyl-N-β-hydroxyethyl-1-ethyl ammonium iodide]: the IC50 in the test on KB cells (KB) is greater than 100000 nM.

In the case of `CCCCCCCCCCCCCCCCOCC[N+](C)(C)CCO.[I-]` [V, 2-hexadecyloxy-N,N-dimethyl-N-β-hydroxyethyl-1-ethyl ammonium iodide], the IC50 with KB cells (setting [2]) is 330 ± 120 nM. For the same molecule, in the test with 77 cells, the IC50 came out at 1420 ± 500 nM and the 77/KB is on record as 4.3 ± 2.15.

With `CCCCCCCCCCCCCCCCSCC(C[N+](C)(C)CCCO)OCC` (stereo not shown) [C], the “Percent Protein Kinase C Activity Retained” value with Protein Kinase C (1.25 μM) turned out to be 78%; in the test on Protein Kinase C (2.5 μM), 64%; with Protein Kinase C (5.0 μM) it was 67%; in the test on Protein Kinase C (10.0 μM), 60%; in the test on Protein Kinase C (20.0 μM), 59%; with Protein Kinase C (40.0 μM), 37%.

As for `CCCCCCCCCCCCCCCCCC(=O)OCC[N+](C)(C)CCO` [II, 2-octadecanoyloxy-N,N-dimethyl-N-β-hydroxyethyl-1-ethyl ammonium iodide], the IC50 in the test with KB cells (setting [2]) was 16000 nM.

Turning to `CC1(C)OCC(C[N+](C)(C)CCO)O1` (stereo not shown) [F], the “Percent Protein Kinase C Activity Retained” value with Protein Kinase C (1.25 μM) amounted to 88%; with Protein Kinase C (2.5 μM), 84%; in the test with Protein Kinase C (5.0 μM), 87%; in the test on Protein Kinase C (10.0 μM), 88%; in the test with Protein Kinase C (20.0 μM) it was 96%; in the test with Protein Kinase C (40.0 μM), 87%.

As for `CCCCCCCCCCCCCCCCSCC(C[N+](C)(C)CCO)OC` (stereo not shown) [A], the “Percent Protein Kinase C Activity Retained” value in the test on Protein Kinase C (1.25 μM) is on record as 97%; in the test on Protein Kinase C (2.5 μM) it was 90%; with Protein Kinase C (5.0 μM), 73%; in the test on Protein Kinase C (10.0 μM) it was 60%; in the test on Protein Kinase C (20.0 μM) it was 54%; in the test on Protein Kinase C (40.0 μM) it was 42%.

With `COC(COc1cccc2ccccc12)C[N+](C)(C)CCO` (stereo not shown) [E], the “Percent Protein Kinase C Activity Retained” value in the test on Protein Kinase C (1.25 μM) is recorded as 99%; in the test on Protein Kinase C (2.5 μM), 99%; in the test with Protein Kinase C (5.0 μM) it was 83%; with Protein Kinase C (10.0 μM), 89%; in the test on Protein Kinase C (20.0 μM) it was 87%; in the test with Protein Kinase C (40.0 μM), 90%.

As for `CCCCCCCCCCCCCCCCOCC(C[N+]1(C)CCC(O)CC1)OCC` (racemic) [CJM PIPER, (±)-1-methyl-1-(3-hexadecyloxy-2-ethoxypropyl)-4-hydroxy piperidinium iodide], the IC50 in test [1] stood at 2800 nM.

Turning to `CCCCCCCCCCCCCCCCOCCC[n+]1ccccc1` [KLM 70, 1-(3-hexadecyloxypropyl) pyridium bromide], the IC50 in test [1] turned out to be 800 nM.

In the case of `CCCCCCCCCCCCCCCCCCSCC(C[N+](C)(C)CCCO)OC` (racemic) [CJM 44, (±)-3-octadecylthio-2-methoxy-N,N-dimethyl-N-gamma-hydroxypropyl-1-propyl ammonium bromide], the IC50 in test [1] is 3400 nM.

On to `CCCCCCCCCCCCOCC[N+](C)(C)CCO.[I-]` [III, 2-dodecyloxy-N,N-dimethyl-N-β-hydroxyethyl-1-ethyl ammonium iodide], for which the IC50 in the test with KB cells (setting [2]) was 780 ± 30 nM. In addition, in the test with 77 cells, the IC50 turned out to be 4730 ± 870 nM and the 77/KB is 6.1 ± 1.15.

As for `CCCCCCCCCCCCCCCCSCC(C[N+](C)(C)C)OC` (stereo not shown) [D], the “Percent Protein Kinase C Activity Retained” value with Protein Kinase C (1.25 μM) amounted to 112%; with Protein Kinase C (2.5 μM), 88%; in the test with Protein Kinase C (5.0 μM) it was 81%; with Protein Kinase C (10.0 μM), 74%; with Protein Kinase C (20.0 μM), 54%; in the test with Protein Kinase C (40.0 μM), 29%.

Consider `CCCCCCCCCCCCCCCCOCC[N+](C)(C)CCCCO.[I-]` [VII, 2-hexadecyloxy-N,N-dimethyl-N-delta-hydroxybutyl-1-ethyl ammonium iodide], for which the figures for the IC50 in the test with KB cells (setting [2]) and in the test on 77 cells were 440 ± 110 nM and 2270 ± 930 nM, respectively. Moreover, in the test with 77 cells, the 77/KB is recorded as 5.2 ± 2.50.

Regarding `CCCCCCCCCCCCCCOCC[N+](C)(C)CCO.[I-]` [IV, 2-tetradecyloxy-N,N-dimethyl-N-β-hydroxyethyl-1-ethyl ammonium iodide], the IC50 with KB cells (setting [2]) turned out to be 320 ± 120 nM; with 77 cells, 1530 ± 230 nM. Moreover, the 77/KB with 77 cells worked out at 4.8 ± 1.94.

`CCCCCCCCCCCCCCCCOCC(C[N+](C)(C)CCO)OC` (stereo not shown) [XII]: the IC50 in the test on KB cells (setting [2]) was determined as 260 ± 50 nM. Further, in the test with 77 cells, the IC50 was 1270 ± 410 nM and the 77/KB was determined as 4.9 ± 1.84.
